Results reported in ChEMBL document CHEMBL1144202, “Triazole oxytocin antagonists: identification of aryl ether replacements for a biaryl substituent” (Bioorg Med Chem Lett, 2008).
≈ marks a conversion by molar mass, not a printed value.

What was measured:
[1] = biological target: T1, Vasopressin V1b receptor (Homo sapiens) (UniProt P47901); assay: Binding affinity to human vasopressin V1b receptor at 10 uM relative to control
T1 sequence (whole entry): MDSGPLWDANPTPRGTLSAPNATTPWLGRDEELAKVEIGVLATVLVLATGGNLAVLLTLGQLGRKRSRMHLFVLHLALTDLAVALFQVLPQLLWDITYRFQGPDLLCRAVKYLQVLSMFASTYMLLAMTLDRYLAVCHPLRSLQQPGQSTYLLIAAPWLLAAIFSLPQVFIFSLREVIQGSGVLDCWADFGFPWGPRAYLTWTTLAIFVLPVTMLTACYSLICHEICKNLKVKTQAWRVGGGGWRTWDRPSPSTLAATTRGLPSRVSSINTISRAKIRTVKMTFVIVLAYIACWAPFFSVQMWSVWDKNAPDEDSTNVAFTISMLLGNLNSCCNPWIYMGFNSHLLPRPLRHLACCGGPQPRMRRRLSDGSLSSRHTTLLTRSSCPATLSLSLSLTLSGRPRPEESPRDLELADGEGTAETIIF

[2] = biological target: Vasopressin V2 receptor (Homo sapiens, UniProt P30518); assay: Antagonist activity at human vasopressin V2 receptor by cell based beta-lactamase reporter gene assay; type: functional
Sequence of Vasopressin V2 receptor (P30518 whole entry): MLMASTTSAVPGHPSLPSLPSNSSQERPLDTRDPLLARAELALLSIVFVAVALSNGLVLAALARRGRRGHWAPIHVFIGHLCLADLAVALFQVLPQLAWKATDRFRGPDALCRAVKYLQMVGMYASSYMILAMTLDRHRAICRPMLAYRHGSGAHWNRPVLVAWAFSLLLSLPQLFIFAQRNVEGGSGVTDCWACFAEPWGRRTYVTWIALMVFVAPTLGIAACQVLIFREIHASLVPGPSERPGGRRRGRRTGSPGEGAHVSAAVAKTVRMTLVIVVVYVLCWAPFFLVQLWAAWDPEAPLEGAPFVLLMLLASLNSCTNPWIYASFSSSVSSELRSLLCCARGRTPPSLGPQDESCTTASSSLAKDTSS

[3] = biological target: Vasopressin V1a receptor (Homo sapiens, UniProt P37288); assay: Antagonist activity at human vasopressin V1a receptor by cell based beta-lactamase reporter gene assay; type: functional
Sequence of Vasopressin V1a receptor (P37288 whole entry): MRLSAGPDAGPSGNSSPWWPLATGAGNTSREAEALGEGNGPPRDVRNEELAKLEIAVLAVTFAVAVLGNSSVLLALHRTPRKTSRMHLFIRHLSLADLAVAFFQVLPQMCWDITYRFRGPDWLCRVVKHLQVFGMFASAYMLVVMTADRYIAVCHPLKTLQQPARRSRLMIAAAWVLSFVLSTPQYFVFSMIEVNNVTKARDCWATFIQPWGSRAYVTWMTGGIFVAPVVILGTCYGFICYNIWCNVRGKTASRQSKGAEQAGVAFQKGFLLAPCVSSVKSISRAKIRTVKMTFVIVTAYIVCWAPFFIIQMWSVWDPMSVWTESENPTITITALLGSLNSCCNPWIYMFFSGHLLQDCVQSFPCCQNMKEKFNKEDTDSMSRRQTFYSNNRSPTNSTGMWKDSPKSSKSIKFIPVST

[4] = biological target: T2, Oxytocin receptor (Homo sapiens, UniProt P30559); assay: Antagonist activity at human oxytocin receptor by cell based beta-lactamase reporter gene assay; type: functional
T2 sequence (P30559 whole entry): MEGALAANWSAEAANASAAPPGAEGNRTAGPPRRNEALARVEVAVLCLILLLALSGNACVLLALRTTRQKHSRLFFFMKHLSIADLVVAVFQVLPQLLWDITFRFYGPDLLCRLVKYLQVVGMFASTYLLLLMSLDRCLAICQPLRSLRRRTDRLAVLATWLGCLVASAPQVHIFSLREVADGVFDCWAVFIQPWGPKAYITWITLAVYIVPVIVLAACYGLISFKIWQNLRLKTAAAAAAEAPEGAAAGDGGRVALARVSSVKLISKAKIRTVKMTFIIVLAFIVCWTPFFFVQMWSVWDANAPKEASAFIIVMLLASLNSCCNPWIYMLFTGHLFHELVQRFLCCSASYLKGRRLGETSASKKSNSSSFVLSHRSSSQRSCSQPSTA

[5] = Aqueous solubility at pH 7.4; type: physicochemical
[6] = Intrinsic clearance in human liver microsomes; type: ADME, Microsome
[7] = biological target: T3, Vasopressin V1b receptor (Homo sapiens, UniProt P47901); assay: Antagonist activity at human vasopressin V1b receptor by cell based beta-lactamase reporter gene assay; type: functional
T3 sequence (P47901 whole entry): T1 sequence (whole entry)

| SMILES | Activity [1] [%] | Ki [2] [nM] | Ki [3] [nM] | Ki [4] [nM] | solubility [5] [µg/mL] | microsomal CLint [6] [µL/min/mg] | Ki [7] [nM] |
| --- | --- | --- | --- | --- | --- | --- | --- |
| CCOc1ccc(-c2nnc(COC)n2-c2ccc(OC)nc2)cc1C(F)(F)F | < 20 | > 10000 | > 10000 | 190 | – | – | – |
| CCOc1ccc(-c2nnc(COC)n2-c2ccc(OC)nc2)cc1Cl | < 20 | > 10000 | 2900 | 144 | – | – | – |
| COCc1nnc(-c2cnc(-c3ccc(C#N)cc3C)cn2)n1-c1ccc(OC)nc1 | < 20 | – | – | – | – | – | – |
| CCOc1ccc(-c2nnc(C)n2-c2ccc(OC)nc2)cc1C | < 20 | > 10000 | > 10000 | 143 | – | – | – |
| COc1ccc(-n2c(C)nnc2-c2cnc(-c3ccc(F)cc3C)cn2)cn1 | < 20 | – | – | – | – | – | – |

Continued by falling Ki [4], values first:

| Activity [1] [%] | Ki [2] [nM] | Ki [3] [nM] | Ki [4] [nM] | solubility [5] [µg/mL] | microsomal CLint [6] [µL/min/mg] | Ki [7] [nM] | SMILES |
| --- | --- | --- | --- | --- | --- | --- | --- |
| < 20 | > 10000 | 3800 | 102 | 170 (≈ 480 µM) | – | – | CCOc1ccc(-c2nnc(COC)n2-c2ccc(OC)nc2)cc1C |
| < 20 | 1000 | 214 | 45 | – | – | – | CCOc1ccc(-c2nnc(Cn3nccn3)n2-c2ccc(OC)nc2)cc1C |
| < 20 | > 10000 | 594 | 28 | 344 (≈ 934 µM) | 12 | > 10000 | CCOCc1nnc(-c2ccc(OCC)c(C)c2)n1-c1ccc(OC)nc1 |
| < 20 | 6400 | 1700 | 19 | – | – | – | CCOc1ccc(-c2nnc(COCCOC)n2-c2ccc(OC)nc2)cc1C |
| < 20 | – | – | 6 | – | – | – | CCOc1ccc(S(=O)(=O)N(CC(=O)N/N=C2\C(=O)Nc3ccccc32)c2ccccc2)cc1 |
